Measured values reported in patent US5650411A, “Substituted azolone derivatives” (Janssen Pharmaceutica N.V., priority 1993, dated 1997).
Values after ≈ are worked out from the molar mass of the structure shown.

System: Helicobacter pylori
Assay: Minimal inhibitory concentration (MIC) against Helicobacter pylori, urease read-out, 5 clinical strains
Format: cell-based
Conditions: 5 H. pylori clinical strains, 10% blood agar, 48 h at 37° C., microaerophilic, read-out: MIC
Experimental: The anti-Helicobacter activity of the subject compounds was assessed by the following in-vitro test procedure.
The activity of test compounds against Helicobacter pylori was determined against a standard set of 5 H. priori strains obtained from clinical material. Minimal inhibitory concentrations (MICs) were determined by measuring the activity of H. pylori urease after treatment of growing cultures of the bacteria with the antimicrobial agents.
The test compounds were dissolved in DMSO at a concentration of 10^-3 M. A dilution to 10^-4 M in DMSO was also prepared. 10 μl volumes of these solutions were pipetted in the wells of Repli-Dishes (®Sterilin). Wells containing DMSO alone were included as controls in each Repli-Dish. Ampicillin ((+)-6-[(2-amino-2-phenylacetyl)amino]-3,3-dimethyl-7-oxo-4-thia-1-azabicyclo[3.2.0]heptane-2-carboxylic acid trihydrate) and metronidazole (2-methyl-5-nitro-1H-imidazol-1-ethanol) were included as reference compounds in each batch of tests. (These compounds were tested at final concentrations of 10^-5, 10^-6, 10^-7 and 10^-8 M). Test plates were stored at 4° C. until used. The five isolates of H. pylori were maintained by subculture on 10% blood agar every 2 or 3 days. The bacteria were grown at 37° C. under an atmosphere containing 5% oxygen, 10% CO2 and 85% nitrogen. Suspensions of Helicobacter pylori for inoculum were prepared in Brain-heart infusion broth and adjusted to an absorbance of 1.5±0.3 at […].
Freshly prepared 10% blood agar held at 45° C. was added in 1 ml volumes to the wells of the test plates, thus diluting the test compounds to 10^-5 and 10^-6 M. The medium was allowed to cool, then 10 μl volumes of bacterial suspension were pipetted on the agar surface. The plates were incubated for 48 h at 37° C. under the microaerophilic atmosphere described above. […] After the 48 h of incubation, 1 ml volumes of urease broth were gently added to each Repli-Dish well and the plates were incubated at 37° C. for 2 h. 100 μl samples of fluid from each well were then pipetted into the wells of 96-place microdilution plates. A purple colour was interpreted as growth, yellow-orange as no growth of H. pylori. By this means a clear end-point was obtained, from which the inhibitory effects could be determined.
Table 1 summarizes the MIC values determined by the above procedure for a subset of the subject compounds.

Row | SMILES | MIC
1 | Cc1cc(N2CCN(c3ccc(-n4c(C)nn([C@H](C)[C@H](O)c5ccc(Cl)c(Cl)c5)c4=O)cc3)CC2)cc(C)c1O (relative stereo) [compound 10, (±)-(R*,R*)-2-[2-(3,4-dichlorophenyl)-2-hydroxy-1-methylethyl]-2,4-dihydro-4-[4-[4-(4-hydroxy-3,5-dimethylphenyl)-1-piperazinyl]phenyl]-5-methyl-3H-1,2,4-triazol-3-one hemihydrate] | 1 µM
2 | Cc1ccc(C(O)C(C)n2ncn(-c3ccc(N4CCN(c5ccc(O)cc5)CC4)cc3)c2=O)cc1 (centres unmarked) [compound 33, 2,4-dihydro-2-[2-hydroxy-1-methyl-2-(4-methylphenyl)ethyl]-4-[4-[4-(4-hydroxyphenyl)-1-piperazinyl]phenyl]-3H-1,2,4-triazol-3-one] | 1 µM (≈ 0.486 µg/mL)
3 | Cc1cn(C(C)C(=O)c2ccc(Cl)cc2)c(=O)n1-c1ccc(N2CCN(c3ccc(O)cc3)CC2)cc1 (centres unmarked) [compound 30, 1-[1-(4-chlorobenzoyl)ethyl]-1,3-dihydro-3-[4-[4-(4-hydroxyphenyl)-1-piperazinyl]phenyl]-4-methyl-2H-imidazol-2-one] | 1 µM (≈ 0.517 µg/mL)
4 | Cc1nn(C(C)C(O)c2ccc(Br)cc2)c(=O)n1-c1ccc(N2CCN(c3ccc(O)cc3)CC2)nc1 (centres unmarked) [compound 23, 2-[2-(4-bromophenyl)-2-hydroxy-1-methylethyl]-2,4-dihydro-4-[6-[4-(4-hydroxy-phenyl)-1-piperazinyl]-3-pyridinyl]-5-methyl-3H-1,2,4-triazol-3-one] | 1 µM (≈ 0.565 µg/mL)
5 | Cc1cn(C(C)C(O)c2ccc(Cl)cc2)c(=O)n1-c1ccc(N2CCN(c3ccc(O)cc3)CC2)cc1 (centres unmarked) [compound 11, 1-[2-(4-chlorophenyl)-2-hydroxy-1-methylethyl]-1,3-dihydro-3-[4-[4-(4-hydroxyphenyl)-1-piperazinyl]phenyl]-4-methyl-2H-imidazol-2-one] | 1 µM (≈ 0.519 µg/mL)
6 | CCC(C(=O)c1ccc(Cl)cc1)n1ncn(-c2ccc(N3CCN(c4ccc(OC)cc4)CC3)nc2)c1=O (racemic) [compound 1, (±)-2-[1-(4-chlorobenzoyl)propyl]-2,4-dihydro-4-[6-[4-(4-methoxyphenyl)-1-piperazinyl]-3-pyridinyl]-3H-1,2,4-triazol-3-one] | 0.1 µM (≈ 0.0533 µg/mL)
7 | COc1ccc(C(=O)C(C)n2ncn(-c3ccc(N4CCN(c5ccc(O)cc5)CC4)cc3)c2=O)cc1 (centres unmarked) [compound 35, 2,4-dihydro-4-[4-[4-(4-hydroxyphenyl)-1-piperazinyl]phenyl]-2-[1-(4-methoxy-benzoyl)ethyl]-3H-1,2,4-triazol-3-one] | 10 µM (≈ 5 µg/mL)
8 | CCC(C(=O)c1ccc(Cl)cc1)n1ncn(-c2ccc(N3CCC(c4cccc(OC)c4)CC3)nc2)c1=O (racemic) [compound 7, (±)-2-[1-(4-chlorobenzoyl)propyl]-2,4-dihydro-4-[6-[4-(3-methoxyphenyl)-1-piperidinyl]-3-pyridinyl]-3H-1,2,4-triazol-3-one] | 0.1 µM (≈ 0.0532 µg/mL)
9 | CCC(C(=O)c1ccc(Cl)cc1)n1ncn(-c2cnc(N3CCN(c4ccc(O)cc4)CC3)nc2)c1=O (racemic) [compound 26, (±)-2-[1-(4-chlorobenzoyl)propyl]-2,4-dihydro-4-[2-[4-(4-hydroxyphenyl)-1-piperazinyl]-5-pyrimidinyl]-3H-1,2,4-triazol-3-one] | 0.1 µM (≈ 0.052 µg/mL)

Continued by falling MIC, values first:

Row | MIC | SMILES
10 | 0.1 µM (≈ 0.0533 µg/mL) | CCC(C(=O)c1ccc(Cl)cc1)n1ncn(-c2ccc(N3CCN(c4ccc(OC)cn4)CC3)cc2)c1=O (racemic) [compound 3, (±)-2-[1-(4-chlorobenzoyl)propyl]-2,4-dihydro-4-[4-[4-(5-methoxy-2-pyridinyl)-1-piperazinyl]phenyl]-3H-1,2,4-triazol-3-one]
11 | 0.1 µM (≈ 0.0534 µg/mL) | CC[C@H]([C@H](O)c1ccc(Cl)cc1)n1ccn(-c2ccc(N3CCN(c4ccc(OC)cc4)CC3)nc2)c1=O (relative stereo) [compound 38, (±)-(R*,R*)-1-[1-[(4-chlorophenyl)hydroxymethyl]propyl]-1,3-dihydro-3-[6-[4-(4-methoxyphenyl)-1-piperazinyl]-3-pyridinyl]-2H-imidazol-2-one]
12 | 0.1 µM (≈ 0.0505 µg/mL) | CC(C(O)c1ccc(Cl)cc1)n1ccn(-c2ccc(N3CCN(c4ccc(O)cc4)CC3)cc2)c1=O (centres unmarked) [compound 12, 1-[2-(4-chlorophenyl)-2-hydroxy-1-methylethyl]-1,3-dihydro-3-[4-[4-(4-hydroxy-phenyl)-1-piperazinyl]phenyl]-2H-imidazol-2-one]
13 | 0.1 µM (≈ 0.0533 µg/mL) | CCC(C(=O)c1ccc(Cl)cc1)n1ncn(-c2ccc(N3CCN(c4ccccc4OC)CC3)nc2)c1=O (racemic) [compound 5, (±)-2-[1-(4-chlorobenzoyl)propyl]-2,4-dihydro-4-[6-[4-(2-methoxyphenyl)-1-piperazinyl]-3-pyridinyl]-3H-1,2,4-triazol-3-one]
14 | 0.1 µM (≈ 0.0535 µg/mL) | CC[C@H]([C@H](O)c1ccc(Cl)cc1)n1ncn(-c2ccc(N3CCN(c4ccccc4OC)CC3)nc2)c1=O (relative stereo) [compound 17, (±)-(R*,R*)-2-[1-[(4-chlorophenyl)hydroxymethyl]propyl]-2,4-dihydro-4-[6-[4-(2-methoxyphenyl)-1-piperazinyl]-3-pyridinyl]-3H-1,2,4-triazol-3-one]
15 | 0.1 µM (≈ 0.0549 µg/mL) | CCC[C@H]([C@H](O)c1ccc(Cl)cc1)n1ncn(-c2ccc(N3CCN(c4cccc(OC)c4)CC3)nc2)c1=O (relative stereo) [compound 40, (±)-(R* ,R*)-2-[1-[(4-chlorophenyl)hydroxymethyl]butyl]-2,4-dihydro-4-[6-[4-(3-methoxyphenyl)-1-piperazinyl]-3-pyridinyl]-3H-1,2,4-triazol-3-one]
16 | 0.1 µM (≈ 0.0534 µg/mL) | CCC(C(=O)c1ccc(Cl)cc1)n1ncn(-c2cnc(N3CCN(c4ccc(OC)cc4)CC3)nc2)c1=O (racemic) [compound 8, (±)-2-[1-(4-chlorobenzoyl)propyl]-2,4-dihydro-4-[2-[4-(4-methoxyphenyl)-1-piperazinyl]-5-pyrimidinyl]-3H-1,2,4-triazol-3-one]
17 | 0.1 µM (≈ 0.0564 µg/mL) | CC(C)(C(O)c1ccc(Br)cc1)n1ncn(-c2ccc(N3CCN(c4ccc(O)cc4)CC3)cc2)c1=O (racemic) [compound 21, (±)-2-[2-(4-bromophenyl)-2-hydroxy-1,1-dimethylethyl]-2,4-dihydro-4-[4-[4-(4-hydroxyphenyl)-1-piperazinyl]phenyl]-3H-1,2,4-triazol-3-one]
18 | 0.1 µM (≈ 0.0535 µg/mL) | CC[C@H]([C@H](O)c1ccc(Cl)cc1)n1ncn(-c2ccc(N3CCN(c4ccc(OC)cn4)CC3)cc2)c1=O (relative stereo) [compound 15, (±)-(RR,SS)-2-[1-[(4-chlorophenyl)hydroxymethyl]propyl]-2,4-dihydro-4-[4-[4-(5-methoxy-2-pyridinyl)-1-piperazinyl]phenyl]-3H-1,2,4-triazol-3-one]
19 | 0.1 µM (≈ 0.0519 µg/mL) | CCC(C(=O)c1ccc(Cl)cc1)n1ncn(-c2ccc(N3CCN(c4ccc(O)cc4)CC3)nc2)c1=O (racemic) [compound 25, (±)-2-[1-(4-chlorobenzoyl)propyl]-2,4-dihydro-4-[6-[4-(4-hydroxyphenyl)-1-piperazinyl]-3-pyridinyl]-3H-1,2,4-triazol-3-one]
20 | 0.01 µM (≈ 0.00519 µg/mL) | CCC(C(=O)c1ccc(Cl)cc1)n1ncn(-c2ccc(N3CCN(c4cccc(O)c4)CC3)nc2)c1=O (racemic) [compound 28, (±)-2-[1-(4-chlorobenzoyl)propyl]-2,4-dihydro-4-[6-[4-(3-hydroxyphenyl)-1-piperazinyl]-3-pyridinyl]-3H-1,2,4-triazol-3-one]
21 | 0.01 µM (≈ 0.00533 µg/mL) | CCC(C(=O)c1ccc(Cl)cc1)n1ncn(-c2ccc(N3CCN(c4cccc(OC)c4)CC3)nc2)c1=O (racemic) [compound 4, (±)-2-[1-(4-chlorobenzoyl)propyl]-4-[6-[4-(3-methoxyphenyl)-1-piperazinyl]-3-pyridinyl]-2,4-dihydro-3H-1,2,4-triazol-3-one]
22 | 0.01 µM (≈ 0.00565 µg/mL) | CC[C@H]([C@H](O)c1ccc(Cl)cc1)n1ncn(-c2ccc(N3CCN(c4ccc(OC)c(OC)c4)CC3)nc2)c1=O (relative stereo) [compound 49, (±)-(R*,R*)-2-[1-[(4-chlorophenyl)hydroxymethyl]propyl]-4-[6-[4-(3,4-dimethoxy-phenyl)-1-piperazinyl]-3-pyridinyl]-2,4-dihydro-3H-1,2,4-triazol-3-one]
23 | 0.01 µM (≈ 0.00562 µg/mL) | CCC(C(=O)c1ccc(Cl)cc1)n1ncn(-c2ccc(N3CCC(c4ccc(OC)c(OC)c4)CC3)nc2)c1=O (racemic) [compound 45, (±)-2-[1-(4-chlorobenzoyl)propyl]-4-[6-[4-(3,4-dimethoxyphenyl)-1-piperidinyl]-3-pyridinyl]-2,4-dihydxo-3H-1,2,4-triazol-3-one]
